Values of other authors as cited in patent US20170008834A1, “FUMARATE COMPOUNDS, PHARMACEUTICAL COMPOSITIONS THEREOF, AND METHODS OF USE” (priority 2015, published 2017).

COC(=O)/C=C/C(=O)OC [DMF, dimethylfumarate]
aqueous solubility: poor
